Relative Vmax data for one molecule are collected here from ChEMBL document CHEMBL1124124, “Synthesis and interaction with uridine phosphorylase of 5'-deoxy-4',5-difluorouridine, a new prodrug of 5-fluorouracil” (J Med Chem, 1988).

The test system of the test is Uridine phosphorylase (Mus musculus). The test can be described thus: Relative Vmax for interaction with Urd phosphorylase.

For the molecule `C[C@@]1(F)OC(n2cc(F)c(=O)[nH]c2=O)[C@H](O)[C@@H]1O` (stereo partly specified), the Relative Vmax was 5.
